One series relates to Bacillus subtilis. In words: Antibacterial activity against Bacillus subtilis MTCC 441 by broth microdilution method. It is filed as functional, organism-based. On the technique in general: Broth dilution looks for growth in wells or tubes with falling amounts of substance.
Series [1] deals with Leishmania amazonensis. In words: Antileishmanial activity against Leishmania amazonensis MHOM/BR/77/LTB0016 promastigotes after 24 hrs. It is filed as functional, organism-based. Conditions: MHOM/BR/77/LTB0016, 24 h.
Another series has as its system Leishmania infantum. Description: Antileishmanial activity against Leishmania infantum MCAN/BR/97/P142 promastigotes after 24 hrs. It is filed as functional, organism-based. Conditions: MCAN/BR/97/P142, 24 h.
The subject of series [2] is Leishmania amazonensis. Description: Antileishmanial activity against Leishmania amazonensis axenic amastigotes after 24 hrs. It is filed as functional, organism-based.
The subject of series [3] is Leishmania amazonensis. In words: Antileishmanial activity against Leishmania amazonensis amastigotes assessed as reduction in […] lode in early log phase after 24 hrs. Format: functional, organism-based.
The subject of series [4] is Leishmania amazonensis. Description: Antileishmanial activity against Leishmania amazonensis amastigotes assessed as reduction in […] lode in late log phase after 24 hrs. It is filed as functional, organism-based.
The test system of series [5] is MCF7. Description: Antiproliferative activity against human MCF7 cells after 48 hrs by SRB assay. Format: functional, cell-based. Conditions: MCF7, 48 h. Background: In SRB staining, fixed cells bind dye roughly in proportion to their protein.
The subject of a further series is HeLa. Description: Antiproliferative activity against human HeLa cells after 48 hrs by SRB assay. Format: functional, cell-based.
The test system of another series is A549. Description: Antiproliferative activity against human A549 cells after 48 hrs by SRB assay. Format: functional, cell-based. Conditions: A549, 48 h.
In the next series the test system is IMR-32. In words: Antiproliferative activity against human IMR32 cells after 48 hrs by SRB assay. It is filed as functional, cell-based. Conditions: IMR-32, 48 h.
The subject of the next series is Pseudomonas aeruginosa. Description: Antibacterial activity against Pseudomonas aeruginosa MTCC 1688. It is filed as functional.
Series [6] deals with Escherichia coli. Description: Antibacterial activity against Escherichia coli MTCC 443. Format: functional.
Series [7] deals with Rattus norvegicus. In words: Anti inflammatory activity in rat assessed as inhibition of carrageenan-induced hind paw edema at 50 mg/kg measured after 1 to 4 hrs by plethysmographic method relative to control. It is filed as functional. On the technique in general: The carrageenan paw model is a standard test of acute inflammation.
Series [8] has as its system Rattus norvegicus. In words: Anti inflammatory activity in Wistar rat assessed as carrageenan-induced paw edema at 10 mg/kg, po pretreated for 15 mins followed by carrageenan addition measured after 90 mins (reference value: 38.7%). Format: functional.
Series [9] is described as follows: Selectivity index, ratio of IC50 for rat seminal vesicles COX1 to IC50 for recombinant human COX2.
The next series concerns Streptococcus pyogenes. Description: Antibacterial activity against Streptococcus pyogenes MTCC 442. It is filed as functional.
In series [10] the test system is Staphylococcus aureus. In words: Antibacterial activity against Staphylococcus aureus MTCC 96. Format: functional.
Series [11] deals with Rattus norvegicus. In words: Ulcerogenic activity in albino rat assessed as ulcer index at 20 mg/kg, po administered daily for 3 successive days in two equal doses at 0 and 12 hrs measured at 6 hrs post last dose by magnifying lens based assay. Format: toxicity, organism-based. Conditions: in vivo.
In the next series the test system is SGC-7901. Description: Antiproliferative activity against human SGC7901 cells after 48 hrs by MTT assay. Conditions: SGC-7901, 48 h. Format: functional, cell-based.
The test system of the next series is SMMC-7721. In words: Antiproliferative activity against human SMMC7721 cells after 48 hrs by MTT assay. It is filed as functional, cell-based. Conditions: SMMC-7721, 48 h.
The subject of the next series is Fusarium oxysporum. Description: Antifungal activity against Fusarium oxysporum f. sp. albedinis. It is filed as functional, organism-based.
The test system of another series is K562. Description: Growth inhibition in human K562 cells at 10^-5 mol/L relative to control. It is filed as functional. Conditions: read-out: GI.
Series [12] relates to MCF7. In words: Antiproliferative activity against human MCF7 cells. Format: functional, cell-based.
The next series relates to Candida albicans. Description: Antifungal activity against Candida albicans after 48 hrs. Format: functional.
In the next series the test system is Yarrowia lipolytica. In words: Antifungal activity against Candida lipolytica after 48 hrs. It is filed as functional.
For another series, the species on record is Ovis aries. Description: Selectivity index, ratio of IC50 for ovine COX1 to IC50 for ovine COX2.
Series [13] concerns Rattus norvegicus. Description: Anti inflammatory activity in Wistar rat assessed as inhibition of carrageenan-induced paw edema at 5 mg/kg, po pretreated for 30 mins followed by carrageenan addition measured up to 4 hrs relative to control. It is filed as functional.
For series [14], the system named is MCF7. Description: Antiproliferative activity against human MCF7 cells after 48 hrs by MTT assay. Format: functional, cell-based. Conditions: MCF7, 48 h.
Series [15] concerns Escherichia coli. In words: Antibacterial activity against Escherichia coli MTCC 443 by broth microdilution method. Format: functional.
In series [16] the test system is Staphylococcus aureus. Description: Antibacterial activity against Staphylococcus aureus. Format: functional.
Series [17] concerns Mycobacterium tuberculosis. Description: Antitubercular activity against Mycobacterium tuberculosis H37Rv at 100 ug/ml by broth microdilution method relative to control. It is filed as functional.
For another series, the system named is B16-F10. In words: Antiproliferative activity against mouse B16F10 cells after 48 hrs by MTT assay. Format: functional, cell-based. Conditions: B16-F10, 48 h.
Series [18] relates to Leishmania amazonensis. Description: Antileishmanial activity against Leishmania amazonensis amastigotes after 24 hrs by MTT assay. Format: functional, organism-based.

SMILES strings stand for the structures. Converted amounts (≈) assume the structure as drawn. A value given as a limit tells only on which side of the number the result lay.

For orientation: IC50 means the concentration that gives 50% inhibition. In general, MIC refers to the lowest concentration that inhibits growth of the organism. The low end stands for a more susceptible organism, the high end for a less susceptible organism. In general, inhibition in vivo refers to the change of the read-out against control, counted positive when it falls. The term inhibition denotes the change of the read-out against control, counted positive when it falls. Read a high inhibition as a response far below the control.

For the compound `CCn1cc(C(=O)O)c(=O)c2cc(F)c(N3CCNCC3)cc21` [NORFLOXACIN], in the series on Bacillus subtilis, the IC50 amounted to 100 µg/mL (≈ 313 µM) and the MIC is 100 µg/mL (≈ 313 µM).

Regarding `N=C(N)c1ccc(OCCCCCOc2ccc(C(=N)N)cc2)cc1` [PENTAMIDINE], the half-inhibitory concentration (IC50) in the series on Leishmania amazonensis [1] was 21 µM; in the series with Leishmania infantum it was 62 µM.

For the compound `CC(=O)N1CCN(c2ccc(OCC3COC(Cn4ccnc4)(c4ccc(Cl)cc4Cl)O3)cc2)CC1` (stereo not drawn) [KETOCONAZOLE], the IC50 in the series with Leishmania amazonensis [2] came out at 164 µM; in the series on Leishmania amazonensis [3] it was 12.5 µM; with Leishmania amazonensis [4], 29.8 µM.

`COc1cc(/C=C/c2nnc(-c3cc(-c4ccc(Cl)cc4)n[nH]3)o2)cc(OC)c1OC`: the 50% inhibitory concentration (IC50) in the series with MCF7 [5] is 1800 nM; in the series on HeLa, 2300 nM; in the series on A549, 1500 nM; in the series on IMR-32 it was 3.2 µM.

With `O=c1[nH]/c(=C\c2nc3cc(Cl)ccc3s2)s/c1=C\c1cn(-c2ccccc2)nc1-c1ccc(Cl)cc1`, the Activity with Pseudomonas aeruginosa was determined as 200 µg/mL; with Escherichia coli [6], 100 µg/mL.

Consider `CC(=O)NC1=NN(C(C)=O)C(c2cn(-c3ccccc3)nc2-c2ccc([N+](=O)[O-])cc2)S1` (stereo not drawn), for which the inhibition in vivo at 50 mg/kg in the series on Rattus norvegicus [7] is greater than 84.2%.

For `Cc1nn(-c2ccc(S(=O)(=O)Nc3ccccc3)cc2)c(Cl)c1Br`, the IC50 was 70 µM in the series with Leishmania amazonensis [1] and 59 µM in the series on Leishmania infantum.

`Cc1ccc(/N=C/c2ccc(OCCOc3cc(C)nn3-c3ccccc3)cc2)cc1`: the Activity in the series on Rattus norvegicus [8] turned out to be 19.4%. In addition, in series [9], the Ratio IC50 was 0.44.

For the compound `O=c1[nH]/c(=C\c2nc3cc(Cl)ccc3s2)s/c1=C\c1cn(-c2ccccc2)nc1-c1ccc(Br)cc1`, the Activity amounted to 200 µg/mL in the series on Pseudomonas aeruginosa, 100 µg/mL with Streptococcus pyogenes and 100 µg/mL in the series with Staphylococcus aureus [10].

As to `COC(=O)Nc1nc2cc(C(=O)c3cccs3)ccc2[nH]1` [NOCODAZOLE], the IC50 was 1250 nM in the series on MCF7 [5], 1200 nM with HeLa, 900 nM in the series on A549 and 1.3 µM in the series with IMR-32.

With `COc1ccc2c(c1)c(CC(=O)O)c(C)n2C(=O)c1ccc(Cl)cc1` [INDOMETHACIN], the UI with Rattus norvegicus [11] is 12.82.

With `O=c1[nH]cc(F)c(=O)[nH]1` [FLUOROURACIL], the IC50 in the series on SGC-7901 was found to be 16 µg/mL (≈ 123 µM); with SMMC-7721, 19.2 µg/mL (≈ 148 µM).

In the series with Fusarium oxysporum, `C/C(O)=C/C(=O)c1cc(C)n(C)n1` yielded an IC50 of 55 nM and a minimum inhibitory concentration (MIC) of 0.055 µM (≈ 9.91 ng/mL).

Consider `Cc1cc(C)n(C(=O)c2cc(-c3ccc(F)cc3F)ccc2O)n1`, for which, in the series on K562, the inhibition of growth at 10 µM amounted to 70%.

On to `CC(=O)NC1=NN(C(C)=O)C(c2cn(-c3ccccc3)nc2-c2ccc(O)cc2)S1` (stereo not drawn), for which the inhibition in vivo at 50 mg/kg with Rattus norvegicus [7] is greater than 84.2%.

`CCCCCCCCCCn1nc(-c2cc(Br)ccc2Cl)c(C(N)=O)c1N` yielded an IC50 in the series on MCF7 [12] of 2500 nM.

Regarding `Cc1cccc(NS(=O)(=O)c2ccccc2)c1-c1ccn(S(=O)(=O)c2ccccc2)n1`, the IC50 stood at 56 µM in the series with Leishmania amazonensis [2], 6.7 µM in the series with Leishmania amazonensis [3] and 41.3 µM in the series with Leishmania amazonensis [4].

In the case of `COc1ccccc1C1CC(c2ccccc2)=NN1C(=N)N` (stereo not drawn), the MIC with Candida albicans and against Yarrowia lipolytica was 15.6 to 62.5 µg/mL (≈ 53 to 212 µM) each time.

In the case of `COc1ccc(-c2cc(-c3ccccc3)nn2CC(=O)Nc2ccc(S(N)(=O)=O)cc2)cc1`, the Ratio IC50 in the series filed under Ovis aries was 11.1. The inhibition in vivo at 5 mg/kg in the series on Rattus norvegicus [13] is 81%. Also, the UI with Rattus norvegicus [11] is 2.79.

On to `CS(=O)(=O)Nc1ccc([N+](=O)[O-])cc1Oc1ccccc1` [NIMESULIDE], for which, in the series on Rattus norvegicus [8], the Activity turned out to be 23.4%.

On to `Clc1ccc(-c2cc(-c3nnc(/C=C/c4ccc5c(c4)OCO5)o3)[nH]n2)cc1Cl`, for which the IC50 in the series with MCF7 [5] is 3900 nM; in the series on HeLa it was 2800 nM; in the series on A549, 2300 nM; in the series with IMR-32, 4.1 µM.

In the series on MCF7 [14], `COc1ccc(/C=C/C(=O)OCc2cn(-c3ccccc3)nc2-c2ccc(OC)cc2)cc1` came in with an IC50 of 300 nM.

As for `Cc1n[nH]c(O)c1C(NNC(N)=O)c1ccc(O)cc1` (stereo not drawn), the minimum inhibitory concentration (MIC) in the series on Escherichia coli [15] (Escherichia coli, MTCC 443) was 0.25 µg/mL (≈ 0.902 µM).

For the compound `CN[C@@H]1[C@H](O[C@H]2[C@H](O[C@H]3[C@H](O)[C@@H](O)[C@H](N=C(N)N)[C@@H](O)[C@@H]3N=C(N)N)O[C@@H](C)[C@]2(O)C=O)O[C@@H](CO)[C@H](O)[C@H]1O` [STREPTOMYCIN], the Activity with Staphylococcus aureus [16] and in the series on Escherichia coli [15] was 500 µg/mL each time.

Consider `CO[C@H]1/C=C/O[C@@]2(C)Oc3c(C)c(O)c4c(O)c(c(/C=N/N5CCN(C)CC5)c(O)c4c3C2=O)NC(=O)/C(C)=C\C=C\[C@H](C)[C@H](O)[C@@H](C)[C@@H](O)[C@@H](C)[C@H](OC(C)=O)[C@@H]1C` [RIFAMPIN], for which at 100 µg/mL the inhibition in series [17] was 98%.

In the case of `CC1(C)S[C@@H]2[C@H](NC(=O)[C@H](N)c3ccccc3)C(=O)N2[C@H]1C(=O)O` [AMPICILLIN], the values for the Activity with Streptococcus pyogenes, in the series with Staphylococcus aureus [10] and in the series with Escherichia coli [6] were 200 µg/mL, 200 µg/mL and 100 µg/mL, respectively. For the same compound, in the series with Bacillus subtilis, the IC50 worked out at 250 µg/mL (≈ 715 µM). The compound also came in with an MIC in the series with Bacillus subtilis of 250 µg/mL (≈ 715 µM).

Take `Cc1ccc(-c2cc(C(F)(F)F)nn2-c2ccc(S(N)(=O)=O)cc2)cc1`: the Ratio IC50 in series [9] worked out at 0.0028.

Take `Cc1cc(OCCOc2ccc(/C=N/c3ccccc3)cc2)n(-c2ccccc2)n1`: the Activity in the series on Rattus norvegicus [8] worked out at 13.4%. For the same compound, the Ratio IC50 in series [9] was found to be 0.51.

With `O=C(O)Cc1ccccc1Nc1c(Cl)cccc1Cl` [DICLOFENAC], the inhibition in vivo at 50 mg/kg in the series with Rattus norvegicus [7] is 86.7%.

As to `C#Cc1cccc(Nc2ncnc3cc(OCCOC)c(OCCOC)cc23)c1` [ERLOTINIB], the 50% inhibitory concentration (IC50) in the series with MCF7 [14] came out at 80 nM; in the series on B16-F10, 120 nM.

As for `COc1ccc(-n2ncc(-c3nnn[nH]3)c2N)cc1`, it took 22.3 µM to reach half-maximal inhibition with Leishmania amazonensis [18] (IC50).

For the origin of these results see ChEMBL document CHEMBL4177593, “Recently reported biological activities of pyrazole compounds” (Bioorg Med Chem, 2017).
